From the supplement of paper PMC10307832

Assays:
Test in all cases: relative viability (nuclei count vs DMSO), 5 days (fraction); higher = more cells survive
AGI-6780 + Pictilisib = compound: O=C(Nc1cccc(C(F)(F)F)c1)Nc1cc(S(=O)(=O)NC2CC2)ccc1-c1ccsc1 [AGI-6780] + CS(=O)(=O)N1CCN(Cc2cc3nc(-c4cccc5[nH]ncc45)nc(N4CCOCC4)c3s2)CC1 [Pictilisib] (partner 1 µM)
Method in brief: (§1)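 Lung cancer cell lines in 1536-well plates got either a single drug or a fixed anchor-drug dose together with five library-drug doses (not always all listed) in √10 steps, by pin tool, on the day after seeding. Nuclei were counted after 5 days, and relative viability is the treated-to-vehicle ratio of nuclei counts. Values are medians of duplicate plates.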

AGI-6780 + Crizotinib = compound: O=C(Nc1cccc(C(F)(F)F)c1)Nc1cc(S(=O)(=O)NC2CC2)ccc1-c1ccsc1 [AGI-6780] + C[C@@H](Oc1cc(-c2cnn(C3CCNCC3)c2)cnc1N)c1c(Cl)ccc(F)c1Cl [Crizotinib] (partner 1 µM)
Method in brief: as §1

AGI-6780 + Dasatinib = compound: O=C(Nc1cccc(C(F)(F)F)c1)Nc1cc(S(=O)(=O)NC2CC2)ccc1-c1ccsc1 [AGI-6780] + Cc1nc(Nc2ncc(C(=O)Nc3c(C)cccc3Cl)s2)cc(N2CCN(CCO)CC2)n1 [Dasatinib] (partner 0.075 µM)
Method in brief: as §1

AGI-6780 + Vorinostat = compound: O=C(Nc1cccc(C(F)(F)F)c1)Nc1cc(S(=O)(=O)NC2CC2)ccc1-c1ccsc1 [AGI-6780] + O=C(CCCCCCC(=O)Nc1ccccc1)NO [Vorinostat] (partner 1 µM)
Method in brief: as §1

Cell Line	relative viability (AGI-6780 + Pictilisib; first compound 0.08 µM)	relative viability (AGI-6780 + Pictilisib; first compound 0.253 µM)	relative viability (AGI-6780 + Pictilisib; first compound 0.8 µM)	relative viability (AGI-6780 + Pictilisib; first compound 2.53 µM)	relative viability (AGI-6780 + Pictilisib; first compound 8 µM)	relative viability (AGI-6780 + Crizotinib; first compound 0.08 µM)	relative viability (AGI-6780 + Crizotinib; first compound 0.253 µM)	relative viability (AGI-6780 + Crizotinib; first compound 0.8 µM)	relative viability (AGI-6780 + Crizotinib; first compound 2.53 µM)	relative viability (AGI-6780 + Crizotinib; first compound 8 µM)	relative viability (AGI-6780 + Dasatinib; first compound 0.08 µM)	relative viability (AGI-6780 + Dasatinib; first compound 0.253 µM)	relative viability (AGI-6780 + Dasatinib; first compound 0.8 µM)	relative viability (AGI-6780 + Dasatinib; first compound 2.53 µM)	relative viability (AGI-6780 + Dasatinib; first compound 8 µM)	relative viability (AGI-6780 + Vorinostat; first compound 0.253 µM)	relative viability (AGI-6780 + Vorinostat; first compound 0.8 µM)	relative viability (AGI-6780 + Vorinostat; first compound 2.53 µM)	relative viability (AGI-6780 + Vorinostat; first compound 8 µM)	relative viability (AGI-6780 + Vorinostat; first compound 0.08 µM)
NCI-H322M	0.518	0.572	0.526	0.585	0.524	0.785	0.861	1.02	0.986	0.858	0.253	0.259	0.242	0.237	0.261	0.956	1.03	0.855	0.855	
NCI-H358	0.355	0.38	0.355	0.289	0.336	0.76	0.566	0.573	0.528	0.471	0.184	0.175	0.17	0.151	0.197	0.616	0.709	0.602	0.675	1.07
NCI-H441	0.562	0.483	0.565	0.288	0.381	0.766	0.988	1.05	0.513	0.887	0.669	0.639	0.597	0.548	0.472	0.711	0.853	0.547	0.676	0.748
NCI-H460	0.325	0.338	0.382	0.242	0.374	0.912	0.963	1.19	0.759	1.06	0.495	0.583	0.468	0.444	0.541	0.678	0.779	0.658	0.659	0.787
NCI-H520	0.278	0.315	0.332	0.257	0.29	0.936	0.729	1.12	0.753	0.774	0.197	0.185	0.216	0.177	0.194	0.71	0.91	0.64	0.764	0.694
NCI-H596	0.419	0.399	0.376	0.382	0.476	0.928	1	0.912	0.773	1.03	0.582	0.583	0.624		0.665	0.533	0.602	0.502	0.642	0.519
NCI-H647	0.428	0.452	0.421	0.347	0.342	1.1	1.13	1.38	0.96	1.15	0.186	0.202	0.23	0.175	0.448	0.628	0.942	0.572	0.752	0.734
NCI-H650	0.872	0.769	0.833	0.775	0.826	0.833	0.673	0.737	0.601	0.641	0.459	0.528	0.443	0.399	0.426	0.466	0.393	0.389	0.465	0.465
NCI-H661	0.378	0.482	0.45	0.317	0.381	1.02	0.921	1.22	0.996	1.08	0.819	0.998	0.986	0.858	1.02	0.863	0.809	0.793	0.734	0.815
NCI-H727	0.516	0.545	0.38	0.227	0.276	0.887	0.702	0.842	0.844	0.843	0.35	0.297	0.386	0.314	0.398	1.01	1.15	1.13	1.16	1.16
NCI-H838	0.473	0.479	0.469	0.447	0.48	0.979	0.795	0.973	0.812	0.844	0.312	0.357	0.307	0.261	0.321	0.687	0.738	0.647	0.672	0.801
NCI-H1355	0.492	0.503	0.5	0.326	0.437	1.04	1.02	1.08	0.943	1.01	0.771	0.712	0.771	0.518	0.776	0.724	0.671	0.569	0.687	0.696
NCI-H1437	0.438	0.545	0.432	0.283	0.43	0.974	0.87	0.922	0.965	0.916	0.371	0.493	0.404	0.306	0.342	0.856	0.827	0.751	0.636	0.818
NCI-H1650	0.566	0.555	0.678	0.568	0.586	0.966	1.01	1.14	0.938	1.02	0.337	0.371	0.38	0.274	0.366	0.592	0.646	0.489	0.549	0.583
NCI-H1651	0.547	0.673	0.495	0.509	0.511	0.821	0.902	0.898	0.878	0.879	0.361	0.534	0.528	0.341	0.544	0.568	0.509	0.545	0.661	0.481
NCI-H1666	0.332	0.472	0.421		0.567	1.09	0.897	1.03		1.05	0.785	0.79	0.872	0.708	0.877	0.996	1.04	0.902	1.06	1.01
